The record followed here is patent US8716558B2, “Method of altering glycosylation of proteins in response to nojirimycin glucuronide in a plant cell expressing glucuronidase” (Marker Gene Technologies, Inc., priority 1999, dated 2014).

Assay [1] deals with 50/50 co-culture of NIH/3T3 and CRE BAG 2 cells. The experiment in a line: Selective ablation, ONPG turnover by remaining cells. It counts as cell-based. The settings on record: 15 μg/ml. As to the method:
(§1) NIH/3T3, CRE BAG 2, or a 50/50 mixture of both cell lines (in co-culture) (Total cell density=6×10^4 cells each) were plated in […]. 12 tissue culture treated glass cover slips were added to each plate, and the cells were allowed to grow in an humidified CO2-incubator (37° C.) for 24 hours. Half the cover slips from each plate were then transferred to separate plates. Cells were treated with 15 μg/ml cycloheximide ? -D-galactopyranoside described in Example 1 (M0147) in media for 14 hours then given fresh media (DME with 10% FCS) for 10 hours. This treatment was repeated twice more, the cover slips were removed from both the M0147 treated and untreated 60 mm plates and placed in 12 well plates. To give an indication of the number of β-galactosidase expressing CREBAG2 cells remaining on the cover slips, the cover slips were incubated with the β-galactosidase substrate ONPG, whose turnover can be measured by the change in absorbance at 420 nm. The cells were rinsed with PBS, then 1 ml of 3.5 mM ONPG in HBSS was added to each well. After 4 hours incubation at 37° C., the solution was removed from each well and the absorbance was measured at 420 nm.

The test system of assay [2] is NIH/3T3 cells. The assay is described as above. It counts as cell-based. Conditions: 15 μg/ml, 14 hours, three treatments, ONPG turnover 4 hours. The protocol:
as §1

Assay [3] relates to CRE BAG 2 cells. The assay is described as above. The settings on record: 15 μg/ml, 14 hours, three treatments, ONPG turnover 4 hours. It counts as cell-based. As to the method:
as §1

In assay [4] the test system is NIH/3T3 cells. The experiment in a line: Doubling time in DME:F12 with a defined sugar, MTT assay. In kind it is cell-based, Mouse. Conditions: NIH/3T3, named sugar as only sugar. The protocol: (§2) Mouse fibroblast cell line NIH/3T3 and its β-galactosidase expressing derivative CREBAG 2 available from ATCC, Manassas, Va., were grown in media containing either only glucose or only lactose to show the ability to select for β-galactosidase expressing cells by providing only lactose as a carbon source, which must be cleaved into glucose and galactose by β-galactosidase before it can be utilized by the cell.
(§3) 1:1 Dulbecco's Modified Eagles medium (DME): Ham F12 medium was prepared according to standard formula (Freshney) and with the omission of D-glucose, which was replaced by an equimolar quantity of D-lactose. Cell lines were plated in 2, 12 well plates for each cell type, at a density of 5×10^3 cells per well, in DME containing 10% Calf Serum (CS), and incubated for 4 hours at 37° C. to allow settling and attachment to the plate. Media was then removed and cells were washed once with phosphate buffered saline solution (PBS). […]
(§4) For the MTT assay, cells are incubated with the MTT reagent, which is turned over by live cells to a purple MTT formazan product. […] Absorbence of each sample is measured against a DMSO blank at 570 nm.

Assay [5] deals with CRE BAG 2 cells (β-galactosidase expressing). Described as above. The settings on record: CRE BAG 2, named sugar as only sugar. In kind it is cell-based, Mouse. As to the method: as §2, §3, §4
In assay [6] the test system is X. campestris XN1. The experiment in a line: Differential growth of non-transformed bacteria under PPT block. It counts as cell-based, Xanthomonas campestris. Conditions: M9+0.2% glucose+PPT (20 μg/mL)+M0182 (63 μg/mL).
The subject of assay [7] is X. campestris CL355 (ampicillin resistant, plasmid pGC9114). The experiment in a line: Differential growth of amp-containing bacteria under PPT block. It counts as cell-based, Xanthomonas campestris. The settings on record: M9+0.2% glucose+PPT (20 μg/mL)+M0182 (63 μg/mL).

Regarding `CC1CC(C)C(=O)[C@H]([C@H](CC2CC(=O)NC(=O)C2)OC2OC(CO)C(O)C(O)C2O)C1` (stereo partly drawn) [Example M0147, 3-[2-(3,5-dimethyl-2-oxocyclohexyl)-2-O-(β-D-galactopyranosyl)ethyl]glutarimide], the “β-galactosidase activity (number of CREBAG2 cells) in co-culture” value in assay [1] (to nearly that of NIH/3T3 cells alone) is “decrease of β-galactosidase activity”. In addition, the “Growth (abs @ 420 nm)” value in assay [1] (Coculture, 14 hours, three treatments, ONPG turnover 4 hours) is given as “.133”; in assay [2], “.100”; in assay [3], “.450”.
Take `OC[C@H]1O[C@@H](O[C@H]2[C@H](O)[C@@H](O)C(O)O[C@@H]2CO)[C@H](O)[C@@H](O)[C@H]1O` (stereo partly drawn) [lactose, D-lactose]: the results for the “Doubling Times (Days) of Cells Grown in DME:F12 with 10% dCS” value in assay [4] and in assay [5] were 0.87 days and 1.13 days, respectively.
For the compound “Phenylacetyl-cephalosporanic acid-glutamate [Example M0182]”, the “final growth, Abs. (600 nm)” value in assay [6] amounted to 0.101; in assay [7], 0.471.
